Reference: patent US10865216B2, “Tricyclic Gyrase inhibitors” (MERCK SHARP & DOHME CORP., priority 2012, dated 2020)
Values after ≈ are worked out from the molar mass of the structure shown. Like-named read-outs stand apart in the source and are kept apart here.

How the values were obtained:
[1] = system: E. coli ATCC 25922; assay: MIC, E. coli ATCC 25922; type: cell-based; conditions: for MIC: Escherichia coli
[2] = system: S. aureus ATCC 13709; assay: MIC, S. aureus ATCC 13709; type: cell-based; conditions: for MIC: Staphylococcus aureus
[3] = E. coli, Alamar Blue read after overnight incubation at 35° C.
[4] = S. aureus, Alamar Blue read after overnight incubation at 35° C.
[5] = ATCC25922, E. coli, Alamar Blue read after overnight incubation at 35° C., read-out: MIC Ec
[6] = ATCC13709, S. aureus, Alamar Blue read after overnight incubation at 35° C., read-out: MIC Sa

**Q.** `CNc1cc(F)cc2c1[nH]c1nc(Oc3cnc(C)nc3)nc(N3CC(C)C(CN)C3)c12` (centres unmarked) [Compound 4.087] was tested. Which “MIC Ec” value [1, 3] did it give?
**A.** 1 µg/mL (≈ 2.29 µM)

**Q.** And the “MIC Sa” value [2, 4]?
**A.** ≤0.5 µg/mL

**Q.** How did the MIC [1, 5] turn out when `CNc1cccc2c1[nH]c1nc(Sc3cnc4nccnc4c3)nc(N3CC4C(N)C4C3)c12` (centres unmarked) [Compound 1.16] was run?
**A.** 1 µg/mL (≈ 2.2 µM)

**Q.** And the MIC [2, 6]?
**A.** ≤ 0.5 µg/mL

**Q.** `CNc1cc(F)cc2c1[nH]c1nc(Oc3cnc(C)nc3)nc(N3CC(CN)C3)c12` [Compound 4.143] was tested. Which “MIC Ec” value [1, 3] did it give?
**A.** 2 µg/mL (≈ 4.9 µM)

**Q.** What about the “MIC Sa” value [2, 4] of the same compound?
**A.** ≤0.5 µg/mL

**Q.** Which results are given for `CNc1cc(F)cc2c1[nH]c1nc(Oc3cnc(SC)nc3)nc(N3CC4(CC[C@H]4N)C3)c12` [Compound 4.202]?
**A.** MIC Ec [1, 3]: ≤0.5 µg/mL; MIC Sa [2, 4]: ≤0.5 µg/mL

**Q.** With `CNc1cc(F)cc2c1[nH]c1nc(Oc3ccc4c(c3)C(=O)NC4)nc(N3CC4(CCC4N)C3)c12` (centres unmarked) [Compound 4.270] as the compound, how does the “MIC Ec” value [1, 3] read?
**A.** 2 µg/mL (≈ 4.22 µM)

**Q.** And the “MIC Sa” value [2, 4]?
**A.** ≤0.5 µg/mL

**Q.** Which results are given for `CNc1cc(F)cc2c1[nH]c1nc(Oc3cncc(C#N)c3)nc(N3CC(N)C4(CC4)C3)c12` (centres unmarked) [Compound 4.051]?
**A.** MIC Ec [1, 3]: 2 µg/mL (≈ 4.5 µM); MIC Sa [2, 4]: ≤0.5 µg/mL

**Q.** With `CNc1cccc2c1[nH]c1nc(Sc3cnc4cccnc4c3)nc(N3CC4C(N)C4C3)c12` (centres unmarked) [Compound 1.12] as the compound, how does the MIC [1, 5] read?
**A.** 1 µg/mL (≈ 2.2 µM)

**Q.** And the MIC [2, 6]?
**A.** ≤ 0.5 µg/mL

**Q.** Which MIC Ec ([1]; Table 18, Ec) does the source give for `CNc1cc(F)cc2c1[nH]c1nc(Oc3cnc(C)nc3)nc(N3CC4CC(OS(N)(=O)=O)C4C3)c12` (centres unmarked) [Compound 10.99] here?
**A.** ≤ 0.5 µg/mL

**Q.** What about the MIC Sa ([2]; Table 18, Sa) of the same compound?
**A.** ≤ 0.5 µg/mL

**Q.** `CNc1cc(F)cc2c1[nH]c1nc(Oc3cncnc3)ncc12` [Compound 4.031] was tested. Which “MIC Ec” value [1, 3] did it give?
**A.** >16 µg/mL

**Q.** And the “MIC Sa” value [2, 4]?
**A.** 2 µg/mL (≈ 6.45 µM)

**Q.** What does the source list for `CNc1cccc2c1[nH]c1nc(Oc3cncnc3)cc(Oc3cncnc3)c12` [Compound 3.37]?
**A.** MIC [1, 5]: > 64 µg/mL; MIC [2, 6]: 2 µg/mL (≈ 5.19 µM)

**Q.** With `CNc1cc(F)cc2c1[nH]c1nc(Oc3cnc(C)nc3)nc(N3C[C@H]4C[C@@H]3C[C@H]4N(CCO)CCO)c12` [Compound 10.115] as the compound, how does the MIC Ec ([1]; Table 18, Ec) read?
**A.** 1 µg/mL (≈ 1.91 µM)

**Q.** What about the MIC Sa ([2]; Table 18, Sa) of the same compound?
**A.** ≤ 0.5 µg/mL

**Q.** Which results are given for `CNc1cc(F)cc2c1[nH]c1nc(Oc3cnc4c(c3)C(=O)N(C)C4C)nc(N3CC4(CC[C@H]4N)C3)c12` (some centres unmarked) [Compound 10.83]?
**A.** MIC Ec ([1]; Table 18, Ec): 1 µg/mL (≈ 1.99 µM); MIC Sa ([2]; Table 18, Sa): ≤ 0.5 µg/mL

**Q.** What does the source list for `CNc1cc(F)cc2c1[nH]c1nc(Oc3cncnc3)nc(N3C4CCC3CC(N)C4)c12` (centres unmarked) [Compound 4.025]?
**A.** MIC Ec [1, 3]: 2 µg/mL (≈ 4.6 µM); MIC Sa [2, 4]: ≤0.5 µg/mL

**Q.** Which results are given for `CNc1cccc2c1[nH]c1nc(Sc3cnc4ccc[n+]([O-])c4c3)nc(N3CC(CNC(=O)c4cn(C)nc4C(F)(F)F)C3)c12` [Compound 1.21]?
**A.** MIC [1, 5]: > 64 µg/mL; MIC [2, 6]: ≤ 0.5 µg/mL

**Q.** `CNc1ncnc2c1[nH]c1nc(Oc3cnc(C)nc3)nc(N3CCC(CN)C3)c12` (centres unmarked) [Compound 7.12] was tested. Which MIC [1, 5] did it give?
**A.** > 64 µg/mL

**Q.** What about the MIC [2, 6] of the same compound?
**A.** > 64 µg/mL

**Q.** Which MIC Ec ([1]; Table 18, Ec) does the source give for `CNc1cc(F)c(F)c2c1[nH]c1nc(Oc3cnc(C)nc3)nc(N3CCC(S(N)(=O)=O)C3)c12` (centres unmarked) [Compound 10.106] here?
**A.** 2 µg/mL (≈ 4.08 µM)

**Q.** And the MIC Sa ([2]; Table 18, Sa)?
**A.** ≤ 0.5 µg/mL

**Q.** Which MIC [1, 5] does the source give for `CNc1ncnc2c1[nH]c1nc(Oc3cncnc3)nc(Oc3cncnc3)c12` [Compound 7.10] here?
**A.** > 64 µg/mL

**Q.** And the MIC [2, 6]?
**A.** > 64 µg/mL

**Q.** `CNc1cc(Cl)cc2c1[nH]c1nc(Oc3cnc(C(C)O)nc3)nc(N3C[C@H]4C[C@@H]3C[C@H]4N)c12` (some centres unmarked) [Compound 10.33] was tested. Which MIC Ec ([1]; Table 18, Ec) did it give?
**A.** ≤ 0.5 µg/mL

**Q.** What about the MIC Sa ([2]; Table 18, Sa) of the same compound?
**A.** ≤ 0.5 µg/mL

**Q.** With `CNc1cc(F)cc2c1[nH]c1nc(Oc3cnc4c(ccn4C)c3)nc(N3CC4CC(N)C4C3)c12` (centres unmarked) [Compound 4.328] as the compound, how does the “MIC Ec” value [1, 3] read?
**A.** 1 µg/mL (≈ 2.12 µM)

**Q.** What about the “MIC Sa” value [2, 4] of the same compound?
**A.** ≤0.5 µg/mL

**Q.** How did the “MIC Ec” value [1, 3] turn out when `CNc1cc(F)cc2c1[nH]c1nc(Oc3cnc(C(C)(C)C)nc3)nc(N3CC4CC(N)C4C3)c12` (centres unmarked) [Compound 4.316] was run?
**A.** 1 µg/mL (≈ 2.1 µM)

**Q.** And the “MIC Sa” value [2, 4]?
**A.** ≤0.5 µg/mL

**Q.** `CNc1cc(F)cc2c1[nH]c1nc(Oc3ccc([C@@H](C)O)nc3)nc(N3CC4[C@H](N)CC4(C)C3)c12` (some centres unmarked) [Compound 10.76] was tested. Which MIC Ec ([1]; Table 18, Ec) did it give?
**A.** ≤ 0.5 µg/mL

**Q.** And the MIC Sa ([2]; Table 18, Sa)?
**A.** ≤ 0.5 µg/mL

**Q.** `CNc1cc(F)cc2c1[nH]c1nc(Oc3cnc(C)nc3)nc(N3CC4NCCOC4C3)c12` (centres unmarked) [Compound 4.114] was tested. Which “MIC Ec” value [1, 3] did it give?
**A.** 2 µg/mL (≈ 4.44 µM)

**Q.** And the “MIC Sa” value [2, 4]?
**A.** ≤0.5 µg/mL

**Q.** Which results are given for `CNc1cc(F)cc2c1[nH]c1nc(Oc3cnc([C@@H](C)O)nc3)nc(N3CCOCC3)c12` [Compound 10.116]?
**A.** MIC Ec ([1]; Table 18, Ec): ≤ 0.5 µg/mL; MIC Sa ([2]; Table 18, Sa): ≤ 0.5 µg/mL

**Q.** For `CNc1cccc2c1[nH]c1nc(Oc3cncnc3)cc(N3CC4CC4(N)C3)c12` (centres unmarked) [Compound 3.1], which MIC [1, 5] is on record?
**A.** 4 µg/mL (≈ 10.3 µM)

**Q.** And the MIC [2, 6]?
**A.** 1 µg/mL (≈ 2.58 µM)

**Q.** For `CNc1cc(F)cc2c1[nH]c1nc(Oc3cnc(C)nc3)nc(NCCN)c12`, which MIC ([1]; ATCC25922, Table 16, new R4 substituents, EC8 not defined, read-out: EC8 MIC) is on record?
**A.** 16 µg/mL (≈ 41.8 µM)

**Q.** And the MIC ([2]; ATCC13709, Table 16, new R4 substituents, read-out: SA MIC)?
**A.** 4 µg/mL (≈ 10.5 µM)

**Q.** For `CNc1cc(F)cc2c1[nH]c1nc(Oc3cnc(N)nc3)nc(N3C4CCC3CC(N)C4)c12` (centres unmarked) [Compound 4.183], which “MIC Ec” value [1, 3] is on record?
**A.** 8 µg/mL (≈ 17.8 µM)

**Q.** And the “MIC Sa” value [2, 4]?
**A.** 1 µg/mL (≈ 2.22 µM)

**Q.** With `CNc1cc(F)cc2c1[nH]c1nc(Oc3ccc4c(c3)C(=O)NCC4)nc(N3CC4C(N)C4C3)c12` (centres unmarked) [Compound 4.301] as the compound, how does the “MIC Ec” value [1, 3] read?
**A.** 1 µg/mL (≈ 2.11 µM)

**Q.** What about the “MIC Sa” value [2, 4] of the same compound?
**A.** ≤0.5 µg/mL

**Q.** Which results are given for `CNc1cc(F)cc2c1[nH]c1nc(Oc3cnc(C)nc3)nc(N3CC4CNC4C3)c12` (centres unmarked) [Compound 4.067]?
**A.** MIC Ec [1, 3]: ≤0.5 µg/mL; MIC Sa [2, 4]: ≤0.5 µg/mL
